Literature values in US20200129491A1, “METHODS OF TREATING BRAIN TUMORS USING COMBINATION THERAPY” (AGIOS PHARMACEUTICALS, INC., priority 2017, published 2020).
Like-named read-outs stand apart in the source and are kept apart here.

Legend:
[1] = tested on: mutant IDH1 proteins; settings: biochemical assays
[2] = tested on: mutant IDH1 proteins; settings: cellular assays
[3] = tested on: mutant IDH1 (mIDH1)
[4] = tested on: mIDH1-driven gliomas; settings: some model systems; D. Rohle et al. Science 340:626-630 (2013)
[5] = tested on: mIDH1 cells; settings: in vitro, mIDH1 glioma models; R. J. Molenaar et al., Cancer Research 75:4790-4802 (2015)

| SMILES | Inhibition of mutant IDH1 proteins [1] | Inhibition of mutant IDH1 proteins [2] | Inhibition of mutant IDH1 (mIDH1) [3] | Growth of mIDH1-driven gliomas [4] | Sensitivity of mIDH1 cells to radiation therapy [5] |
| --- | --- | --- | --- | --- | --- |
| N#Cc1ccnc(N2C(=O)CC[C@H]2C(=O)N(c2cncc(F)c2)[C@H](C(=O)NC2CC(F)(F)C2)c2ccccc2Cl)c1 [Ivosidenib, (S)—N—((S)-1-(2-Chlorophenyl)-2-(3,3-difluorocyclobutylamino)-2-oxoethyl)-1-(4-cyanopyridin-2-yl)-N-(5-fluoropyridin-3-yl)-5-oxopyrrolidine-2-carboxamide] | inhibitor of mutant IDH1 proteins | inhibitor of mutant IDH1 proteins | – | – | – |
| Cc1ccccc1C(C(=O)NC1CCCCC1)N(C(=O)Cn1ccnc1C)c1cccc(F)c1 (centres unmarked) [AGI-5198] | – | – | inhibit | repress growth | desensitized to radiation therapy |
